Target: Voltage-dependent L-type calcium channel subunit alpha-1C (Rattus norvegicus, UniProt P22002)
Assay: Displacement of [3H](+)-PN200-110 binding from calcium channels of rat cardiac membranes.
Type: cell membranes, Membrane

Voltage-dependent L-type calcium channel subunit alpha-1C, sequence (P22002 whole entry): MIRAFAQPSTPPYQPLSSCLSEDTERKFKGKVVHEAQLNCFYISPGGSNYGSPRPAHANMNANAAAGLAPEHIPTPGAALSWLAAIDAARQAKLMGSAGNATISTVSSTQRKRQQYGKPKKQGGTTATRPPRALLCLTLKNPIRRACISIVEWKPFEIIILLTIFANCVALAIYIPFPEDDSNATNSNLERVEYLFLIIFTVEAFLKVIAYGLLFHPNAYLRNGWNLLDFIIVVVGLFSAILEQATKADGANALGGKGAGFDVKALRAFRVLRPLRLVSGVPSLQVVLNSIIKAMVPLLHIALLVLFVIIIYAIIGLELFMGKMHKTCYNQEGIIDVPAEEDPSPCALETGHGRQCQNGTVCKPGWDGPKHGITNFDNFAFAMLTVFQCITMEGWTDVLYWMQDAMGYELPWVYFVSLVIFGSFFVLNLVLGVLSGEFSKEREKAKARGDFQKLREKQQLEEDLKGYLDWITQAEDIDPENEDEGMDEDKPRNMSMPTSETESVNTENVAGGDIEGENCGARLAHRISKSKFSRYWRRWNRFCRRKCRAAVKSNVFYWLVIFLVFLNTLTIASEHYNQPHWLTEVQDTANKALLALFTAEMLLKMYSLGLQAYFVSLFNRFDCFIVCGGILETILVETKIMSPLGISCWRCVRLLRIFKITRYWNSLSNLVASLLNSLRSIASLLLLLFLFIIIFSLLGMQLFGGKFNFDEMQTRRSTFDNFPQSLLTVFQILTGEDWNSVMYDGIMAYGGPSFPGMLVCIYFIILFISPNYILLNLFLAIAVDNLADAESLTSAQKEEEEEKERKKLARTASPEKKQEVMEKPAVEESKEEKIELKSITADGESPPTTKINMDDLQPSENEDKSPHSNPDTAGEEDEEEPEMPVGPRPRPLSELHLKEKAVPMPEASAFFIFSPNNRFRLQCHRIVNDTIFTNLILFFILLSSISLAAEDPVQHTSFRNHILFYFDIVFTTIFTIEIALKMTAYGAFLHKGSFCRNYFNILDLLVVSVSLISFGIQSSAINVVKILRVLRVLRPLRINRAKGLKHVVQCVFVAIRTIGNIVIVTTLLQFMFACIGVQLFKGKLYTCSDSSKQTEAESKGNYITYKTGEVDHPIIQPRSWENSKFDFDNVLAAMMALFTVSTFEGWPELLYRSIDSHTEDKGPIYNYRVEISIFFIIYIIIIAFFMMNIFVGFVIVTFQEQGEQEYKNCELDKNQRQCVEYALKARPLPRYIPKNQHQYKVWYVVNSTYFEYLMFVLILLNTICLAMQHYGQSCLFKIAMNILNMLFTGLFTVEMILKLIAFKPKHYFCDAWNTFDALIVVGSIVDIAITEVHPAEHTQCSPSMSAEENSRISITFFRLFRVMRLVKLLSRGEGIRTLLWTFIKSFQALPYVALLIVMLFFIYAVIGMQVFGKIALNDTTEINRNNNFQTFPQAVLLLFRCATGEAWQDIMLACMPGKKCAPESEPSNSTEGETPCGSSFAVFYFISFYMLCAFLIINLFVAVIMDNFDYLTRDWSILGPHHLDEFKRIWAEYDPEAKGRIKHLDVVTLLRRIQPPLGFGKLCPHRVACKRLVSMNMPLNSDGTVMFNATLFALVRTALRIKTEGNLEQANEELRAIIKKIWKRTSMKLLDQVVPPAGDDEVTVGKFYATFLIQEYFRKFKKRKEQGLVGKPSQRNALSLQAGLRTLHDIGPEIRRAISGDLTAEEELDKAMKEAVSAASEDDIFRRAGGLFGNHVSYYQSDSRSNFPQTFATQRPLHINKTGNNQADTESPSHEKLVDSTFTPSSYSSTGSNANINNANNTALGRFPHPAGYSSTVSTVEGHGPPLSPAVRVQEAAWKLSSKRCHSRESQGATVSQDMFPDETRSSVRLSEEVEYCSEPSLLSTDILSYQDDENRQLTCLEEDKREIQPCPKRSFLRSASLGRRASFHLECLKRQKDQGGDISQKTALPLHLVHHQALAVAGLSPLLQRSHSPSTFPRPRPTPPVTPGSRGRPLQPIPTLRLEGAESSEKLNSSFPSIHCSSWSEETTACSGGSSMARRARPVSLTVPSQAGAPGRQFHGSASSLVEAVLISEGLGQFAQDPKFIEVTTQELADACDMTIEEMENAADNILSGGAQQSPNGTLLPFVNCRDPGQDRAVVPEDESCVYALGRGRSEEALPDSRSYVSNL

Compound | Ki [nM]
CCOC(=O)C1=C(C)N=C(C)/C(=C(/O)OCC)C1c1c(C)noc1CCc1ccccc1-c1ccccc1 (stereo not drawn) | 45.5
CCOC(=O)C1=C(C)N=C(C)/C(=C(/O)OCC)C1c1c(C)noc1CCc1cccc2ccccc12 (stereo not drawn) | 2.16
CCOC(=O)C1=C(C)N=C(C)/C(=C(/O)OCC)C1c1c(C)noc1CCc1ccc2ccccc2c1 (stereo not drawn) | 10.7

— ChEMBL document CHEMBL1132339, “Lipophilic 4-isoxazolyl-1,4-dihydropyridines: synthesis and structure-activity relationships” (J Med Chem, 1999)
